{
  "source": "patent US5140025A",
  "about": "“Thienotricylene for the treatment of bronchial diseases” (BYK Gulden Lomberg Chemische Fabrik GmbH, priority 1987, dated 1992)",
  "key": {"[1]": {"tested_on": "acetylcholine-induced asthma attacks", "assay": "Acetylcholine-induced asthma attacks in the conscious guinea pig, oral administration", "type": "in vivo, guinea pig (Pirbright White)", "details": "30 min after administration; for Number of animals, latency period tripled (= protected): 10 animals used", "text": "Effect of orally administered (±)-telenzepine on acetylcholine-induced asthma attacks in the conscious guinea pig\nAs described by R. Beume, U. Kilian, N. Kolassa, K. Mussler, Atemw.-Lungenkrkh., 11, 342-345, 1985 (\"The testing of bronchospasmolytic substances in conscious guinea pigs\").\nPirbright White, Interfauna (Tuttlingen), 250-450 g, male, 10 animals per dose and experiment.\nThoracographic measurement of the respiratory activity, measurement of the latency period from the beginning of acetylcholine nebulisation to the beginning of the asthma attack; determination of the number of animals for which, 30 minutes after administration, the latency period of the experimental attack has been at least tripled in relation to the control attack; estimation of the approximate ED50 from this.\n0.1, 0.3, 1, 3, 10 and 30 μmol/kg (±)-telenzepine p.o. (in 4% Methocel, administered in 0.9% NaCl); acetylcholine 0.09% in 0.9% NaCl by inhalatin (ultrasonic nebulisation).\nThe number of animals for which there is at least a tripling of the latency period of the acetylcholine-induced experimental attack in comparison with the control attack as a function of the perorally administered (±)-telenzepine dose is expressed as follows: […]"}, "[2]": {"tested_on": "modified Shay rat (lesion formation and acid secretion)", "assay": "Antiulcerogenic and secretion-inhibiting action on the modified Shay rat", "type": "in vivo", "details": "Rattus norvegicus, iv, 4 h, modified Shay rat, i.v., interpolated dose, 4 h, N=24", "text": "The excellent gastric protective action and the gastric secretion-inhibiting action of the compound (+)-4,9-dihydro-3-methyl-4-[(4-methyl-1-piperazinyl)-acetyl]-10H-thieno[3,4-b][1,5]benzodiazepin-10-one (=compound 1 in Table 8 below) in comparison with the corresponding (-)-enantiomer (=compound 3) and with the racemate (=compound 2) can be detected in studies on the modified Shay rat. The effect of the stated compounds after intravenous (i.v.) administration on the formation of lesions and the acid secretion in the modified Shay rat is shown in Table 8 below.\nUlcers are provoked in rats (female, 180-200 g, 4 animals per cage on high grids) which have fasted for 24 hours, by pylorus ligature (under diethyl ether anaesthesia) and oral administration of 100 mg/10 ml/kg of acetylsalicylic acid. The substances to be tested are administered intravenously (1 ml/kg) directly after the pylorus ligature. The wound is closed by means of Michel clamps. 4 hours afterwards, the animals are sacrificed under anaesthesia with ether by Atlas dislocation, and resection of the stomach.\nThe stomach is opened along the greater curvature and clamped to a cork sheet, the amount of secreted gastric juice (volume) is determined first and its HCl content (titration with sodium hydroxide solution) being determined subsequently. The number and size (=diameter) of ulcers present are determined using a stereomicroscope, under 10×magnification. The product of severity (according to the following point scale) and number of ulcers serves as an individual lesion index.\nThe reduction in the means lesion index of each treated group compared with the control group (=100%) serves as a measure of the antiulcerogenic effect. The ED50 is the dose which reduces the mean lesion index or the HCl secretion by 50% compared with the control."}, "M2 receptor (cardiac)": {"biological_target": "T1, M2 receptor (cardiac) (Rattus norvegicus, UniProt P10980)", "T1 construct": "isolated, left atria of rats (male 250-350 g); from tissue; host or cells: rat left atrium (isolated, male rats 250-350 g)", "T1 sequence (P10980 1-466)": "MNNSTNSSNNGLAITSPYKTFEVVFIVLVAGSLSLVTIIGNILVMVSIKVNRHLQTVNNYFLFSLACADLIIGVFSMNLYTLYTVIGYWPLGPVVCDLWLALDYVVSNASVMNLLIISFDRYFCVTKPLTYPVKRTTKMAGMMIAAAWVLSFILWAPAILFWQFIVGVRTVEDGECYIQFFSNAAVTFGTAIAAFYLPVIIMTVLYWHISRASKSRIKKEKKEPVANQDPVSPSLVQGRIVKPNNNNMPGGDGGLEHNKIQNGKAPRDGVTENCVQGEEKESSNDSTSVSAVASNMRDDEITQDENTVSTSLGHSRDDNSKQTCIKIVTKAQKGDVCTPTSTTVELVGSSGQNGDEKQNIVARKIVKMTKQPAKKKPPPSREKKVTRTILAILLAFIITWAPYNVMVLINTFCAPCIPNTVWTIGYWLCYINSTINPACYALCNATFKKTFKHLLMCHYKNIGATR", "assay": "Receptor affinity, electrically stimulated left atrium of the rat", "details": "agonist carbachol, Schild slope normalised to 1.00, read-out: pA2 ± SEM, M2 receptor (cardiac) (converted)", "text": "The affinity of (±)-4,9-dihydro-3-methyl-4-[(4-methyl-1-piperazinyl)-acetyl]-10H-thieno[3,4-b][1,5]benzodiazepin-10-one (telenzepine, compound 2 in Table 7) and its conformers [(+)-enantiomer=compound 1, (-)-enantiomer=compound 3] to muscarinic M1 (ganglionic type) and M2 (cardiac type) receptors was investigated by the following methods:\nElectrically Stimulated Left Atrium of the Rat (Eltze et al., 1985, Europ. J. Pharmacol. 112, 211-224).\nIsometric contractions (HSE force transducer, K-30; Watanabe Linear Corder Mark 5) of isolated, left atria of rats (male 250-350 g) were recorded in an organ bath (10 ml, Tyrode nutrient solution, 31° C., gassing with carbogen, initial tension of the organs 0.25 g) under electrical stimulation (HSE stimulator; hook-shaped Pt electrodes at the base of the bath and immersed, annular Pt electrodes 1 cm below the water surface of the bath; 7 V, 3 ms, 2 Hz). After an equilibration time of 30 minutes, cumulative dose/response curves of carbachol (10^-8 -10^-6 M, in the presence of the antagonist also up to 10^-5 or 10^-4 M) were recorded simultaneously on 4 organs in each case by the technique described by van Rossum (1963). The substance to be tested was added to the organ baths 20 minutes before application of the carbachol. The pauses between the individual dose/response curves were 30-45 minutes.\nThe Tyrode nutrient solution used had the following composition (mM): NaCl 130, KCl 2.0, CaCl2 ·2H2 O 1.8, MgCl2 ·6H2 O 0.98, NaHCO3 12.0, NaH2 PO4 0.42 and glucose monohydrate 5.6. pA2 values (-log of the molar dissociation constants of the competitive antagonist-receptor complex) were determined by linear regression using the Schild plot: pA2 =-log [B/(x-1)], (Arunlakshana and Schild, 1959).\nTable 7 below gives pA2 values of the substances, for which the slope of the regression lines for theoretically competitive antagonism have been normalised to 1.00 (Tallarida et al., 1979)."}},
  "note": "Read-outs that look alike come from different tables or passages of the source.",
  "data": [
    {"smiles": "Cc1scc2c1N(C(=O)CN1CCN(C)CC1)c1ccccc1NC2=O", "note": "(racemic) [(±)-telenzepine, 4,9-dihydro-3-methyl-4-[(4-methyl-1-piperazinyl)-acetyl]-10H-thieno[3,4-b][1,5]benzodiazepin-10-one]", "values": [
      {"measurement": "Number of animals, latency period tripled (= protected)", "setting": "[1]; 0.1 μmol/kg p.o.", "result": "3 number of animals"},
      {"measurement": "Number of animals, latency period tripled (= protected)", "setting": "[1]; 0.3 μmol/kg p.o.", "result": "5 number of animals"},
      {"measurement": "Number of animals, latency period tripled (= protected)", "setting": "[1]; 1 μmol/kg p.o.", "result": "6 number of animals"},
      {"measurement": "Number of animals, latency period tripled (= protected)", "setting": "[1]; 3 μmol/kg p.o.", "result": "7 number of animals"},
      {"measurement": "Number of animals, latency period tripled (= protected)", "setting": "[1]; 10 μmol/kg p.o.", "result": "9 number of animals"},
      {"measurement": "Number of animals, latency period tripled (= protected)", "setting": "[1]; 30 μmol/kg p.o.", "result": "10 number of animals"},
      {"measurement": "ED50", "setting": "[1]; Cavia porcellus, po, 0.5 h, 95% Int. in brackets, read-out: approximate ED50 (at least tripling of latency period)", "result": "~0.7", "unit": "µmol/kg"},
      {"measurement": "ED50", "setting": "[2]; read-out: Gastric protective action, reduction of lesion index, about ED50", "result": "~0.042", "unit": "mg/kg"},
      {"measurement": "ED50", "setting": "[2]; read-out: Inhibition of acid secretion, reduction of HCl secretion, about ED50", "result": "~0.18", "unit": "mg/kg"},
      {"measurement": "Kb", "setting": "M2 receptor (cardiac)", "result": 47.9, "unit": "nM"}
    ]}
  ]
}
